Laboratory results published in patent US20070207503A1, “DETECTION OF ALCOHOL-ESTERIFIED FATTY ACIDS” (priority 2006, published 2007).

Tests used:
[1] = test system: antibodies against 14,15-DHET; test: 14,15-DHET solid phase competitive ELISA, specificity; format: binding, goat; details: 14,15-DHET ELISA, panel of eicosanoids
Protocol: (§1) High-binding microplates were coated with protein G-purified IgG suspended in 1 M carbonate, pH 9.01 (10 μg/well; 200 μL/well final volume) and then covered with parafilm. After overnight incubation at room temperature, the welts were gently washed five times with tris buffered saline (TBS), pH 7.5, containing 0.1% tween. Non-specific sites were blocked by the addition of 0.2 mL of 5% (w/v) nonfat dry milk in TBS. After 2 hours of incubation at room temperature, they were washed three times with TBS-tween.
(§2) Standards were serially diluted with TBS (100 μL). The diluted samples (100 μL) were added to the IgG-coated plate. Approximately 50 ng of the DHET HRP conjugates were diluted with HRP-dilution buffer (100 μL) and added to the well. Following incubation for 2 hours to permit competitive binding of the molecules to the antibody, unbound material was removed by thorough washing of the wells with TBS-tween, and 150 μL of a calorimetric substrate for HRP [3,3′,5,5′ tetramethylbenzidine (TMB) and hydrogen peroxide] (Sigma Co.) was added. The plate is then incubated for 30 min, the reaction stopped by addition of 75 μL of 1 N H2SO4, and the absorbance at 450 nm was measured using a microtiter plate reader. Under these assay conditions, the amount of color in a well is inversely proportional to the initial concentration of the sample or the standard ligand.
(§3) The specificity of the 14,15-DHET ELISA was investigated using authentic DHET and a panel of eicosanoids which, based on their structure, might be anticipated to compete with 14,15-DHET for binding to antibodies against 14,15-DHET.
(§4) In a typical standard graph for 14,15-DHET, the r2 value for the fit of the data to an equation describing an inverse logarithmic relationship of free 14,15-DHET to B/Bo was usually higher than 0.96. The detection limits for 14,15- and 11,12-DHET with ELISAwere ˜1 pg.

[2] = Form-specific antibody production / specificity of anti-14,15-, 11,12-, 8,9- and 5,6-DHETs; format: binding; details: DHET coupled to KLH, goat immunized
Protocol: Synthetic 14,15-, 11,12- or 8,9-DHETs were coupled to KLH using dicyclohexylcarbodiimide (DCC) as previously described (10). The 5,6-DHET with COOH at C1 blocked by NH3 to prevent lactone formation were coupled to KLH using 1-ethyl-3-(3-dimethylaminopropyl)carbodiimide hydrochloride (EDC) according to the manufacturer's instruction (Pierce Biotechnology, Rockford, Ill).
The conjugate was used to immunize a goat and antibody titers were determined by ELISA using the DHET-conjugated bovine serum albumin (BSA).
as §3
(§5) The specificity of the antibody developed against 14,15-DHET was further investigated utilizing slot blot analysis. The 14,15-DHET conjugated BSA, BSA alone and 8,9-DHET conjugated to BSA were blotted onto cellulose membrane. Slot blot analysis was carried out with anti-14,15-DHET. […] Anti-8,9-DHET cross-reacted with both 8,9- and 14,15-DHETs.

[3] = test system: Anti-8,9-DHET; test: Cross-reaction of anti-8,9-DHET; format: binding, goat
Protocol: as §5

[4] = test system: 11,12-DHET IgG; test: 11,12-DHET solid phase competitive ELISA, specificity; format: binding, goat; details: 11,12-DHET ELISA, authentic DHETs
Protocol: as §1, §2, §3, §4

[5] = test system: ethanol-esterified 13-HODE IgG; test: Competitive ELISA with HRP conjugated with ethanol-esterified 13-HODE; format: binding, goat; details: plate coated with the IgG, various concentrations
Protocol: FIG. 6 is a graph showing a competitive ELISA carried out with various concentrations of BSA and 13-HODE ethyl ester conjugated BSA to show cross-reactivity of the antibody to the 13-HODE ethyl ester.
A competitive ELISA using a plate coated with the IgG was carried out with various concentrations of BSA conjugated with ethanol-esterified 13-HODE and HRP conjugated with ethanol-esterilied 13-HODE. A negative control for this ELISA was BSA.
ELISA was carried out with serially diluted BSA or ethyl ester of 13-HODE-conjugated BSA and ˜50 ng/100 μl of the ethyl ester of 13-HODE HRP conjugates as described in Example 1.

SMILES	cross-reaction with anti-14,15-DHET [1]	further results
CCCCC/C=C\C[C@H]1O[C@H]1C/C=C\C/C=C\CCCC(=O)O [11,12-EET]	did not cross-react	–
CCCCC/C=C\C/C=C\C/C=C\C/C=C\CCCC(=O)O [arachidonic acid]	did not cross-react	–
CCCCC[C@H](O)/C=C/[C@@H]1[C@@H](C/C=C\CCCC(=O)O)[C@@H](O)C[C@H]1O [PGF2a]	did not cross-react	–
CCCCC[C@H](O)/C=C/[C@H]1[C@H](O)CC(=O)[C@@H]1C/C=C\CCCC(=O)O [PGE2]	did not cross-react	–
CCCCC[C@H](O)/C=C/[C@H]1OC(O)C[C@H](O)[C@@H]1C/C=C\CCCC(=O)O (stereo partly shown) [Thromboxane B2]	did not cross-react	–
CCCCCC1OC1C/C=C\C/C=C\C/C=C\CCCC(=O)O (stereo not shown) [14,15-EET]	did not cross-react	–
CCCCC[C@H](O)/C=C/C=C\C/C=C\C=C\[C@@H](O)CCCC(=O)O [5(s)15(S)DiHETE]	did not cross-react	–
CCCCC/C=C\CC(O)C(O)C/C=C\C/C=C\CCCC(=O)O (stereo not shown) [11,12-DHET]	minimal cross-reaction	form-specific antibody production [2]: successful
CCCCC/C=C\C/C=C\CC1OC1C/C=C\CCCC(=O)O (stereo not shown) [8,9-EET]	did not cross-react	–
CCCCCC(O)C(O)C/C=C\C/C=C\C/C=C\CCCC(=O)O (stereo not shown) [14,15-DHET]	–	form-specific antibody production [2]: successful; cross-reaction with anti-8,9-DHET [3]: cross-reacted; cross-reaction with 11,12-DHET IgG [4]: minimal cross-reaction
CCCCC/C=C\C/C=C\CC(O)C(O)C/C=C\CCCC(=O)O (stereo not shown) [8,9-DHET]	minimal cross-reaction	form-specific antibody production [2]: failed; cross-reaction with anti-8,9-DHET [3]: cross-reacted; cross-reaction with 11,12-DHET IgG [4]: minimal cross-reaction
CCCCC/C=C\C/C=C\C/C=C\CC(O)C(O)CCCC(=O)O (stereo not shown) [5,6-DHET]	did not cross-react	form-specific antibody production [2]: failed; cross-reaction with 11,12-DHET IgG [4]: didn't cross-react
CCCCC/C=C\C/C=C\C/C=C\CC1OC1CCCC(=O)O (stereo not shown) [5,6-EET]	did not cross-react	–
CCCCC/C=C\C/C=C\CCCCCCCC(=O)OCC [Ethanol-esterified linoleic acid, linoleic acid ethyl ester]	–	competition with ethanol-esterified 13-HODE-HRP conjugate for binding to the IgG [5]: competed with the HRP conjugated with ethanol-esterified 13-HODE in a dose-dependent manner
CCCCC[C@H](O)/C=C/[C@@H]1[C@@H](CC(=O)CCCCC(=O)O)[C@@H](O)C[C@H]1O [6-keto-PGF1a]	did not cross-react	–
CCO [ethanol]	–	competition with ethanol-esterified 13-HODE-HRP conjugate for binding to the IgG [5]: competed with the HRP conjugated with ethanol-esterified 13-HODE in a dose-dependent manner
CCCCC[C@H](O)/C=C/C=C\C/C=C\C/C=C\CCCC(=O)O [15(S)HETE]	did not cross-react	–
